According to US20100310467A1, “COMPOSITION AND METHOD FOR GENERATING A METABOLIC PROFILE USING 13C-MR DETECTION” (priority 2007, published 2010):

Columns and labels:
[1] = Liquid state polarisation and T1 by liquid state 13C-NMR; assay type: physicochemical; settings: for T1: at 9.4 T; for Liquid state polarisation: liquid state 13C-NMR at 400 MHz, after 90 minutes DNP and dissolution
Experimental: In a similar way, the level of polarisation for dissolved hyperpolarised ^13C-fumarate may be determined by liquid state NMR measurements. Again the signal intensity of the dissolved hyperpolarised ^13C-fumarate is compared with the signal intensity of the dissolved ^13C-fumarate before polarisation. The level of polarisation is then calculated from the ratio of the signal intensities of ^13C-fumarate before and after polarisation.
After 90 minutes of dynamic nuclear polarisation, the obtained frozen polarised composition was dissolved in 6 ml of a solution prepared from 5.87 ml water (100 mg/l EDTA added), 133 μl NaOH aq (2 M) and 30 mg NaCl. The pH of the final solution containing the dissolved composition was 7.2. The ^13C1,4-fumarate concentration in said final solution was 50 mM.
Liquid state polarisation was determined by liquid state ^13C-NMR at 400 MHz to be 21%. T1 at 9.4 T was 34 s.

[2] = Solid state polarisation by solid state 13C-NMR after DNP; assay type: physicochemical; settings: DNP at 1.2 K, 3.35 T, microwave 93.90 GHz, trityl radical and Gd-chelate
Source text: The level of polarisation may for instance be determined by solid state ^13C-NMR measurements in solid hyperpolarised ^13C-fumarate, e.g. solid hyperpolarised ^13C-fumarate obtained by dynamic nuclear polarisation (DNP) of ^13C-fumarate. The solid state ^13C-NMR measurement preferably consists of a simple pulse-acquire NMR sequence using a low flip angle. The signal intensity of the hyperpolarised ^13C-fumarate in the NMR spectrum is compared with signal intensity of ^13C-fumarate in a NMR spectrum acquired before the polarisation process. The level of polarisation is then calculated from the ratio of the signal intensities of before and after polarisation.
The probe is inserted into the probe-retaining container, submerged in the liquid helium and irradiated with microwaves, preferably at a frequency of about 94 GHz at 200 mW. The level of polarisation may be monitored by for instance acquiring solid state ^13C-NMR signals of the probe during microwave irradiation. Generally, a saturation curve is obtained in a graph showing NMR signal vs. time. […] A solid state ^13C-NMR measurement suitably consists of a simple pulse-acquire NMR sequence using a low flip angle. The signal intensity of the dynamic nuclear polarised nuclei, i.e. ^13C nuclei in ^13C-fumaric acid or ^13C-fumarate is compared with the signal intensity of the ^13C nuclei in ^13C-fumaric acid or ^13C-fumarate before DNP. The polarisation is then calculated from the ratio of the signal intensities before and after DNP.
To a micro test tube was added ^13C1,4-fumaric acid (33.5 mg, 0.284 mmol), TRIS (42 mg, 0.347 mmol) and 22.5 μl water. The test tube was gently heated and sonicated to dissolve all compounds. […] Polarisation was followed by solid state ^13C-NMR and the solid state polarisation was determined to be 25%.

mouse hind leg muscle = assay: In vivo 13C-MR spectroscopy of mouse leg before and after ischemic injury; set-up: species or system C57Bl/6 mouse
Experimental: 175 μl of an imaging medium comprising hyperpolarised sodium ^13C1,4-fumarate which was prepared as described in Example 2 was injected into a C57Bl/6 mouse over a time period of 6 s. The sodium ^13C1,4-fumarate concentration in said imaging medium was about 50 mM. A surface coil (tuned for carbon) was positioned around the leg muscle and signals of ^13C-fumarate and ^13C-malate were detected by ^13C-MR spectroscopy which was carried out in a 2.4 T Bruker spectrometer to generate a metabolic profile. A total of 60 ^13C-spectra were acquired with a repetition time of 2 s and 15 degree RF pulses. Ischemia in a mouse leg muscle was made by strangulation of the hind leg muscle. Following an ischemic period of 30 min the mouse leg muscle was re-perfused for one hour. In this Example, the ^13C-malate signal is approximately 0.5% of the ^13C-fumarate signal in the mouse muscle before ischemia. Following ischemia and 5 min. reperfusion the ^13C-malate signal is approximately 1.5% of the ^13C-fumarate signal. After 60 min. reperfusion the ^13C-malate signal is approximately 4% of the ^13C-fumarate signal. With an identical protocol signals of ^13C-pyruvate and ^13C-lactate were detected by ^13C-MR spectroscopy (polarisation of pyruvate was carried out as described in Example 2 of WO-A-2006/011809).

[3] = tested on: subcutaneous mouse lymphoma (EL-4); assay: 13C-dynamic imaging of subcutaneous mouse lymphoma with and without etoposide treatment; assay type: in vivo, C57Bl/6 mouse; settings: EL-4 tumours, 22-26 hours after etoposide injection, n=5, signal normalized to maximum fumarate signal
Experimental: EL-4 cells were injected into a C57Bl/6 mouse to generate a subcutaneous mouse lymphoma. On day 9 after implantation, the EL4 tumour was imaged. 175 μl of an imaging medium comprising hyperpolarised sodium ^13C1-fumarate-d2 which was prepared as described in Example 3 was injected into the mouse over a time period of 6 s. The sodium ^13C1-fumarate-d2 concentration in said imaging medium was about 20 mM. A surface coil (tuned for carbon) was positioned over the subcutaneous tumour and signals of ^13C-fumarate and ^13C-malate were detected by ^13C-MR spectroscopy which was carried out using a 2.4 T Bruker spectrometer to generate a metabolic profile of the tumour and the surrounding healthy tissue. A slice selective FID was acquired with a 10° RF flip angle, TR=3 s, and 60 repetitions. […] Signal amplitudes for both malate and fumarate were normalized to the maximum fumarate signal and were measured as a function of time. […] Fumarase may be an ideal candidate enzyme for this because it requires no cofactors for its activity (so its activity is solely determined by the availability of the enzyme and the substrate) and the rate of conversion is very fast in vivo (about ˜2-4 fold faster than lactate dehydrogenase) making it a sensitive test.

cells = assay: Further in vitro experiments, malate production after etoposide treatment; assay type: cell-based
[4] = tested on: Dicarboxylate Transporter (DCT); assay: In vitro hyperpolarized malate production with transporter inhibition; assay type: cell-based
DU-145 cells = assay: In vitro 13C-MR detection, conversion of 13C-fumarate to 13C-malate; assay type: cell-based, human; settings: n≧3
Experimental: (§1) 50 μl (2.7 mM in sodium ^13C1-fumarate-d2) of an imaging medium which was prepared according to Example 3 was mixed into 8*10^6 MDA-MB-231 cells (human epithelial breast cell adenocarcinoma). Signals of ^13C-fumarate and ^13C-malate were detected by acquiring a set of ^13C-MR spectra every 5 s with a 15 degree RF pulse. The result is shown in FIG. 1: ^13Cmalate was building up over time. The conversion rate was 70 μmol/min*g soluble protein with a peak ^13C-malate signal after approximately 30 s. With an identical protocol conversion rates were calculated for three other human cancer cell lines, these are compared in Table 1.
(§2) Table. […] Formation of ^13C1,4-malate-d2 from ^13C1-fumarate is calculated for the 4 investigated cell lines (n≧3). […] This cell line is highly invasive and hormone-insensitive and represents a late stage cancer. Formation rate of malate varies greatly between the two prostate cancer lines, with a 7 times higher conversion rate in the more aggressive PC-3 line, compared to DU-145.

PC-3 cells = assay: as above; assay type: cell-based, human
Experimental: as §1, §2

H-EMC-SS cells = assay: as above; assay type: cell-based, human; settings: n≧3
Experimental: as §1, §2

[5] = tested on: MDA-MB-231 cells (human epithelial breast cell adenocarcinoma); assay: as above; assay type: cell-based
Experimental: as §1, §2

Compound: O=[13C](O)/C=C/[13C](=O)O [^13C1,4-fumarate]
- T1 [1]: 34 s
- Liquid state polarisation [1]: 21%

Compound: O=[13C](O)/C=C/[13C](=O)O [^13C1,4-fumaric acid]
- solid state polarisation [2]: 30%

Compound: [2H]/C(C(=O)O)=C(/[2H])[13C](=O)O [^13C1-fumaric acid-d2]
- solid state polarisation [2]: 41%

Compound: CC(=O)[13C](=O)O [^13C-pyruvate, reference compound]
- 13C-lactate signal relative to pyruvate signal (mouse hind leg muscle; 60 min reperfusion): back to levels comparable to the healthy muscle
- 13C-lactate signal relative to pyruvate signal (mouse hind leg muscle; directly after ischemia): increases to above the pyruvate signal
- 13C-lactate signal as % of the 13C-pyruvate signal (mouse hind leg muscle; healthy muscle): approximately 40%

Compound: COc1cc([C@@H]2c3cc4c(cc3[C@@H](O[C@@H]3O[C@@H]5CO[C@@H](C)O[C@H]5[C@H](O)[C@H]3O)[C@H]3COC(=O)[C@H]23)OCO4)cc(OC)c1O [etoposide]
- malate signal compared to untreated tumours [3]: 65%
- malate production (cells; after 14 hrs of treatment with etoposide): increase in malate production
- malate production (cells; after 16 hrs of treatment with etoposide): further increase

Compound: [Cl-].[Li+] [lithium chloride]
- change in hyperpolarized malate production ([4]; provisional experiments with lithium chloride): only a small reduction

Compound: O=[13C]([O-])/C=C/[13C](=O)[O-].[Na+].[Na+] [sodium ^13C1,4-fumarate]
- T1 [1]: 34 s
- Liquid state polarisation [1]: 29%
- 13C-malate signal as % of the 13C-fumarate signal (mouse hind leg muscle; 30 min ischemia, 5 min reperfusion): approximately 1.5%
- 13C-malate signal as % of the 13C-fumarate signal (mouse hind leg muscle; 30 min ischemia, 60 min reperfusion): approximately 4%
- 13C-malate signal as % of the 13C-fumarate signal (mouse hind leg muscle; mouse muscle before ischemia): approximately 0.5%

Compound: [2H]/C(C(=O)[O-])=C(/[2H])[13C](=O)[O-].[Na+].[Na+] [sodium ^13C1-fumarate-d2]
- Malate formation rate (DU-145 cells): 6 ± 2 μmol min^−1 g^−1 protein
- Malate formation rate (PC-3 cells; PC-3 cells, n≧3): 42 ± 0.5 μmol min^−1 g^−1 protein
- conversion rate in PC-3 compared to DU-145 (PC-3 cells; prostate cancer lines PC-3 vs DU-145): 7 times
- Malate formation rate (H-EMC-SS cells): 40 ± 14 μmol min^−1 g^−1 protein
- conversion rate (fumarate to malate) ([5]; 8*10^6 MDA-MB-231 cells, 50 μl imaging medium (2.7 mM), FIG. 1): 70 μmol/min*g soluble protein
- Malate formation rate ([5]; MDA-MB-231 cells, n≧3): 77 ± 19 μmol min^−1 g^−1 protein
- time of peak 13C-malate signal ([5]; MDA-MB-231 cells, spectra every 5 s): approximately 30 s
- T1 [1]: 44 s
- Liquid state polarisation [1]: 40%

Compound: O=C(O)CCC(=O)O [succinate]
- change in malate production ([4]; excess (50 mM) of unlabelled, non-hyperpolarized succinate added): only a small reduction

Compound: TRIS-^13C1,4-fumarate
- solid state polarisation [2]: 25%
